# Tests used:
# [1] = general description of the commercial product; cited from earlier work
# [2] = Absorption spectrum in chloroform (UV-visible spectrophotometer); assay type: physicochemical; settings: chloroform solution 10 mg/L; for Peak area ratio in waveband 280-450 nm: total
# Procedure: The absorption spectra were measured using an ultraviolet-visible spectrophotometer, and the instrument model is (UV-2600, Shimadzu corporation, Japan). The absorption spectra were compared in Table 1 below.
# [3] = Color test, Gardner color scale of DMF solution; assay type: physicochemical; settings: 2 g dissolved in 18 g DMF
# Procedure: The completely dissolved solution was transferred to a cuvette, and the Gardner color scale value transmitted by the solvent was measured. The instrument was a Ci7600 bench spectrophotometer (X-rite, the United States).
# [4] = Solubility/compatibility test in typical oligomer resins; settings: mass soluble in 100 g of oligomer, 20° C.
# Procedure: Test method: The mass of soluble ultraviolet absorber in 100 g of oligomer when the ambient temperature is 20° C.
Compound,Wavelength to which absorption can be red-shifted [1],Absorption cut-off wavelength [2],Maximum absorption peak in red shift direction [2],Peak area ratio in waveband 280-360 nm [2],Peak area ratio in waveband 361-380 nm [2],Peak area ratio in waveband 381-400 nm [2],Peak area ratio in waveband 401-450 nm [2],Peak area ratio in waveband 280-450 nm [2],Gardner color scale [3],Solubility in cyclohexanedimethylene diisocyanate (H6XDI) [4],Solubility in hexamethylene diisocyanate (HDI) trimer [4],Solubility in tripropylene glycol diacrylate [4]
"CCCCN1C(=O)c2cc3nn(-c4cc(C(C)(C)CC(C)(C)C)cc(C(C)(C)c5ccccc5)c4O)nc3cc2C1=O [Carboprotect, reference compound]",420 nm,435 nm,374 nm,56.2%,14.6%,18.5%,10.7%,100%,11.5,–,–,–
CCCCCCCCCCCCSc1ccc2nn(-c3cc(C)cc(C(C)(C)C)c3O)nc2c1 [RSUV-1],–,416 nm,369 nm,58.1%,26.5%,13.6%,1.8%,100.0%,3.0,4.2 g,4.6 g,3.9 g
CCCCCCCCCCCCS(=O)(=O)c1ccc2nn(-c3cc(C)cc(C(C)(C)C)c3O)nc2c1 [RSUV-2],–,430 nm,370 nm,65.4%,18.1%,11.8%,4.7%,100.0%,5.2,3 g,3.5 g,3.8 g
"Cc1cc(-n2nc3ccc(Cl)cc3n2)c(O)c(C(C)(C)C)c1 [UV-326, 2′-(2′-hydroxy-3′-tert-butyl-5′-methylphenyl)-5-chlorobenzotriazole, reference compound]",–,410 nm,–,–,–,–,–,–,–,–,–,–
